Test results: patent US20240417405A1, “Substituted Spiro Derivatives” (Janssen Pharmaceutica NV, priority 2021, published 2024)

Tests used:
[1] = biological target: T1, menin/MLL (terbium chelate-labeled menin, FITC-MBM1 peptide) (Homo sapiens, UniProt O00255, T541A); assay: Menin/MLL homogenous time-resolved fluorescence (HTRF) assay; type: binding; conditions: 30 min incubation
T1 construct: Menin (a.a 1-610-6xhis tag)
T1 sequence (O00255 with tags, fused parts or gaps T541A): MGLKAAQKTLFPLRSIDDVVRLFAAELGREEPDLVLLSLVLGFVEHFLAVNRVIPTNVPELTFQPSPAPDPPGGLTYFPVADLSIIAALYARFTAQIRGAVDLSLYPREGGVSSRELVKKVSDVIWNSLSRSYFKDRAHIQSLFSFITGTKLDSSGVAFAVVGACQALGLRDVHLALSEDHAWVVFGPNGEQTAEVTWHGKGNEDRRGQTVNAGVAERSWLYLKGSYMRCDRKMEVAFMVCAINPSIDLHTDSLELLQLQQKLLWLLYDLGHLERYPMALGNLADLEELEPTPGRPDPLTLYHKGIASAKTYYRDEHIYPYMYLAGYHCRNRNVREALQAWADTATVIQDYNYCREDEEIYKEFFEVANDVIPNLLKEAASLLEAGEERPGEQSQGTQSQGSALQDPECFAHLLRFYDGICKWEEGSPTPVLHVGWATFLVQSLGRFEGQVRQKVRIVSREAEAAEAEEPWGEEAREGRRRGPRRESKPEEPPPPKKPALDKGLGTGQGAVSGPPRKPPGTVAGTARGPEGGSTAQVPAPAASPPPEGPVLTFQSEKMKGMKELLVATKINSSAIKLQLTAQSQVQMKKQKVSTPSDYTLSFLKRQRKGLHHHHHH
In short: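 Displacement of FITC-labeled MBM1 peptide (75 nM) from terbium-labeled menin 1-610 (200 pM) measured by HTRF emission ratio. Eleven four-fold dilutions, typically from 10 μM, normalised to saturating-competitor and no-compound controls; IC50 from four-parameter logistic.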

[2] = test system: MOLM14 cells; assay: Proliferation assay, spheroid-like growth, MOLM14 (MLL-AF9 rearranged); type: cell-based, human; conditions: Homo sapiens, MOLM-14, 192 h, 8 days, confluence as measure of spheroid size, read-out: spheroid assay_OneTime MOLM14 IC50
In short: (§1)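 Read-out is spheroid confluence from live-cell images taken on day 8, scaled between DMSO-treated wells (0% cytotoxicity) and a low control such as 1 μM staurosporin. Cells were exposed to compound for 8 days in low-attachment plates; KO-52 served as the MLL-wildtype counterscreen.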

[3] = test system: KO-52 cells; assay: Proliferation assay, spheroid-like growth, KO-52 (MLL wildtype control cell line); type: cell-based, human; conditions: Homo sapiens, 192 h, KO-52 control cells, 8 days, confluence as measure of spheroid size; read-out: spheroid assay_OneTime KO-52 IC50
In short: as §1

SMILES | IC50 [1] [µM] | IC50 [2] [µM] | IC50 [3] [µM]
CC(C)[C@@H]([C@H]1C[C@@H](N2C[C@H]3COC[C@H]3C2)C1)N1CC2(CCN(c3ncnnc3Oc3ccc(F)cc3-c3ncncc3C3CC3)C2)C1 (single isomer, unassigned) [Compound 97] | 0.0001 | 0.003 | 0.31
CC(C)[C@@H]([C@H]1C[C@@H](N2CCC(S(C)(=O)=O)CC2)C1)N1CC2(CCN(c3ncnnc3Oc3ccc(F)cc3-c3ncncc3C3CC3)C2)C1 (single isomer, unassigned) [Compound 98] | 0.0004 | 0.058 | 4.35
CC(C)[C@@H]([C@H]1C[C@@H](N2CCC(C(=O)N(C)C)CC2)C1)N1CC2(CCN(c3ncnnc3Oc3ccc(F)cc3-c3ncncc3C3CC3)C2)C1 (single isomer, unassigned) [Compound 100] | 0.0001 | 0.033 | 9.81
CC(C)[C@@H]([C@H]1C[C@@H](N2CC3(CCO3)C2)C1)N1CC2(CCN(c3ncnnc3Oc3ccc(F)cc3-c3ncncc3C3CC3)C2)C1 (single isomer, unassigned) [Compound 101] | 0.0001 | 0.01 | 1.07
CC(C)[C@H]([C@H]1C[C@@H](N2CC3(CCO3)C2)C1)N1CC2(CCN(c3ncnnc3Oc3ccc(F)cc3-c3cncnc3C3CC3)C2)C1 (single isomer, unassigned) [Compound 145] | 0.0002 | 0.006 | 3.58
CC(C)[C@H]([C@H]1C[C@H](N2CC3(CCO3)C2)C1)N1CC2(CCN(c3ncnnc3Oc3ccc(F)cc3-c3cncnc3C3CC3)C2)C1 (single isomer, unassigned) [Compound 146] | 0.0002 | 0.16 | 6.6
CC(C)[C@H]([C@H]1C[C@@H](N(C)C)C1)N1CC2(CCN(c3ncnnc3Oc3ccc(F)cc3-c3ncccc3C3CC3)C2)C1 (single isomer, unassigned) [Compound 147] | 0.0001 | 0.004 | 0.39
CC(C)[C@H]([C@H]1C[C@@H](NC2CC2)C1)N1CC2(CCN(c3ncnnc3Oc3ccc(F)cc3-c3ncccc3C3CC3)C2)C1 (single isomer, unassigned) [Compound 148] | 0.0002 | 0.003 | 0.61
CC(C)[C@H]([C@H]1C[C@@H](N2C[C@H]3COC[C@H]3C2)C1)N1CC2(CCN(c3ncnnc3Oc3ccc(F)cc3-c3ncccc3C3CC3)C2)C1 (single isomer, unassigned) [Compound 149] | 0.0001 | < 0.002 | 0.51
CC(C)[C@H]([C@H]1C[C@H](N2C[C@H]3COC[C@H]3C2)C1)N1CC2(CCN(c3ncnnc3Oc3ccc(F)cc3-c3ncccc3C3CC3)C2)C1 (single isomer, unassigned) [Compound 150] | 0.0001 | 0.12 | 3.14
CC(C)[C@H]([C@H]1C[C@@H](N2CC3(COC3)C2)C1)N1CC2(CCN(c3ncnnc3Oc3ccc(F)cc3-c3ncccc3C3CC3)C2)C1 (single isomer, unassigned) [Compound 151] | 0.0001 | 0.004 | 2.03
CC(C)[C@H]([C@H]1C[C@H](N2CC3(COC3)C2)C1)N1CC2(CCN(c3ncnnc3Oc3ccc(F)cc3-c3ncccc3C3CC3)C2)C1 (single isomer, unassigned) [Compound 152] | 0.0002 | 0.049 | 3.96

More lines, main results first:

IC50 [1] [µM] | IC50 [2] [µM] | SMILES | IC50 [3] [µM]
0.0001 | 0.002 | CC(C)[C@@H]([C@H]1C[C@@H](N2CC[C@](C)(O)C2)C1)N1CC2(CCN(c3ncnnc3Oc3ccc(F)cc3-c3ncncc3C3CC3)C2)C1 (single isomer, unassigned) [Compound 99] | 2
0.0001 | 0.012 | CC(C)[C@@H]([C@H]1C[C@@H](N2CC3(CCO3)C2)C1)N1CC2(CCN(c3ncnnc3Oc3ccc(F)cc3-c3cnncc3C3CC3)C2)C1 (single isomer, unassigned) [Compound 102] | 8.47
0.0001 | 0.1 | CC(C)[C@@H]([C@H]1C[C@H](N2CC3(CCO3)C2)C1)N1CC2(CCN(c3ncnnc3Oc3ccc(F)cc3-c3cnncc3C3CC3)C2)C1 (single isomer, unassigned) [Compound 103] | 12.2
0.0002 | 0.073 | CC(=O)N1CCN([C@H]2C[C@@H]([C@H](C(C)C)N3CC4(CCN(c5ncnnc5Oc5ccc(F)cc5-c5cnncc5C5CC5)C4)C3)C2)CC1 (single isomer, unassigned) [Compound 104] | 11.8
0.0001 | 0.011 | CC(C)[C@@H]([C@H]1C[C@@H](N2CC3(COC3)C2)C1)N1CC2(CCN(c3ncnnc3Oc3ccc(F)cc3-c3cnncc3C3CC3)C2)C1 (single isomer, unassigned) [Compound 106] | 4.99
0.0001 | 0.076 | CC(C)[C@@H]([C@H]1C[C@H](N2CC3(COC3)C2)C1)N1CC2(CCN(c3ncnnc3Oc3ccc(F)cc3-c3cnncc3C3CC3)C2)C1 (single isomer, unassigned) [Compound 107] | > 15
0.0002 | 0.001 | CO[C@H]1CCN([C@H]2C[C@@H]([C@H](C(C)C)N3CC4(CCN(c5ncnnc5Oc5ccc(F)cc5-c5cnncc5C5CC5)C4)C3)C2)C1 (single isomer, unassigned) [Compound 108] | 2.65
0.0001 | 0.053 | CO[C@H]1CCN([C@H]2C[C@H]([C@H](C(C)C)N3CC4(CCN(c5ncnnc5Oc5ccc(F)cc5-c5cnncc5C5CC5)C4)C3)C2)C1 (single isomer, unassigned) [Compound 109] | > 15
0.0001 | 0.012 | CC(C)[C@@H]([C@H]1C[C@@H](N2CC[C@@H](C(=O)N(C)C)C2)C1)N1CC2(CCN(c3ncnnc3Oc3ccc(F)cc3-c3cnncc3C3CC3)C2)C1 (single isomer, unassigned) [Compound 110] | 6.84
0.0002 | 0.12 | CC(C)[C@@H]([C@H]1C[C@H](N2CC[C@@H](C(=O)N(C)C)C2)C1)N1CC2(CCN(c3ncnnc3Oc3ccc(F)cc3-c3cnncc3C3CC3)C2)C1 (single isomer, unassigned) [Compound 111] | > 15
0.0001 | 0.006 | CC(C)[C@@H]([C@H]1C[C@@H](N2CC[C@](C)(O)C2)C1)N1CC2(CCN(c3ncnnc3Oc3ccc(F)cc3-c3cnncc3C3CC3)C2)C1 (single isomer, unassigned) [Compound 112] | 10.1
0.0002 | 0.2 | CC(C)[C@@H]([C@H]1C[C@H](N2CC[C@](C)(O)C2)C1)N1CC2(CCN(c3ncnnc3Oc3ccc(F)cc3-c3cnncc3C3CC3)C2)C1 (single isomer, unassigned) [Compound 113] | > 15
0.0001 | 0.008 | CC(C)[C@@H]([C@H]1C[C@@H](N2CC[C@@](C)(O)C2)C1)N1CC2(CCN(c3ncnnc3Oc3ccc(F)cc3-c3cnncc3C3CC3)C2)C1 (single isomer, unassigned) [Compound 114] | 14.2
0.0002 | 0.43 | CC(C)[C@@H]([C@H]1C[C@H](N2CC[C@@](C)(O)C2)C1)N1CC2(CCN(c3ncnnc3Oc3ccc(F)cc3-c3cnncc3C3CC3)C2)C1 (single isomer, unassigned) [Compound 115] | > 15
0.0001 | 0.007 | CC(C)[C@@H]([C@H]1C[C@@H](N2CC[C@H](C(=O)N(C)C)C2)C1)N1CC2(CCN(c3ncnnc3Oc3ccc(F)cc3-c3cnncc3C3CC3)C2)C1 (single isomer, unassigned) [Compound 116] | 8.89
0.0001 | 0.17 | CC(C)[C@@H]([C@H]1C[C@H](N2CC[C@H](C(=O)N(C)C)C2)C1)N1CC2(CCN(c3ncnnc3Oc3ccc(F)cc3-c3cnncc3C3CC3)C2)C1 (single isomer, unassigned) [Compound 117] | > 15
